From article PMC11944515, “Host-Mediated Antimicrobial Effects and NLRP3 Inflammasome Modulation by Caulerpin and Its Derivatives in Macrophage Models of Mycobacterial Infections” (Microorganisms, 2025)

Experiments:
[1] = tested on: M. smegmatis within RAW 264.7 macrophages; experiment: Therapeutic potential in M. smegmatis-infected RAW 264.7 cells (CFU); assay type: cell-based, Mycobacterium smegmatis; conditions: 15, 7.5 and 3.25 µM, 24 h
Description: For the first in vitro infection test with M. smegmatis, RAW 264.7 were seeded in 96-well culture plates at a density of 1 × 10^4 cells/well in DMEM medium (with 10% FBS, without antibiotics) and incubated overnight at 37 °C with 5% CO2 [20]. Infection of RAW 264.7 cells with M. smegmatis mc^2155 was performed at a multiplicity of infection of 1:1 for 2 h at 37 °C with 5% CO2. The medium with non-internalized bacteria was removed, and infected cells were then treated with the tested substances in DMEM: CP (15 µM, 7.5 µM and 3.25 µM), CA (30 µM, 15 µM, 7.5 µM and 3.25 µM), DE (15 µM, 7.5 µM and 3.25 µM), and DP (15 µM, 7.5 µM and 3.25 µM). Macrophages were lysed after 24 h with 0.1% Triton–X100, and these suspensions were diluted and plated on LB. CFU was determined after incubation of plates for 3 days at 37 °C. CFU numbers were expressed as log (CFU/well).

[2] = tested on: RAW 264.7 cells; experiment: Direct effects on RAW 264.7 cell viability (MTT); assay type: cell-based, murine
Description: The direct effects of CP and its analogues on RAW 264.7 viability were evaluated using the MTT method. RAW 264.7 cells were seeded at 1 × 10^4 cells/well (for 24 h incubation) and 5 × 10^3 cells/well (for 48 h incubation) and incubated overnight to allow adhesion. The culture medium was carefully aspirated and replaced with 100 μL DMEM plus 100 μL of test compound solutions, yielding final concentrations ranging from 3.25 to 30 µM (DMSO 1%, v/v). After 24 or 48 h of exposure to test compounds, cells were incubated with MTT (0.5 mg/mL) for 3 h. The resulting formazan crystals were dried, dissolved in DMSO, and absorbance was measured at 570 nm using a microplate reader (EL800, BioTek, Winooski, VT, USA). The precipitated purple formazan crystals were directly proportional to the number of metabolically active viable cells. The cell viability was then calculated as: Cell viability (%) = (Sample absorbance/Control absorbance) × 100. Data were expressed as mean of cell viability ± standard error of the mean from three to four independent experiments performed in triplicate.

[3] = tested on: Mycobacterium smegmatis mc2155; experiment: M. smegmatis susceptibility by CFU enumeration; assay type: cell-based
[4] = tested on: M. tuberculosis H37Ra; experiment: M. tuberculosis susceptibility by CFU enumeration; assay type: cell-based, Mycobacterium tuberculosis; conditions: 0.03 μM, 48 h of treatment, positive control
Description: Next, CP, CA, and DE were diluted in Middlebrook 7H9 plus 10% OADC for the cellular susceptibility assay with M. tuberculosis H37Ra to yield concentrations up to 15 µM, 30 µM, and 15 µM, respectively. RIF at 0.03 µM was used as a positive control. The final DMSO concentration in all wells was 2.5%. The M. tuberculosis suspension was diluted in 7H9 plus 10% OADC to achieve an optical density of 0.006 at 595 nm, and 100 μL was then added to each well. Plates were covered, sealed with parafilm, and incubated at 37 °C for 48 h. After incubation, aliquots were removed, diluted, and plated in Middlebrook 7H10 agar plus 10% OADC. Plates were incubated at 37 °C for 4 weeks, and CFU were counted. CFU numbers were expressed as log10(CFU/mL).

With `CCCOC(=O)/C1=C/c2c([nH]c3ccccc23)/C(C(=O)OCCC)=C\c2c1[nH]c1ccccc21` [DP, (6E,13E)-dipropyl 5,12-dihydrocycloocta[1,2-b:5,6-b′]diindole-6,13-dicarboxylate] the “effect on intracellular M. smegmatis growth in RAW 264.7” value [1] was “no inhibitory effect”, the “effect on RAW 264.7 cell viability” value ([2]; 24 h incubation, 3.25 to 30 µM) was “did not affect viability at any of the concentrations tested” and the “effect on RAW 264.7 cell viability” value ([2]; 48 h incubation) was “did not affect cell viability at any concentration evaluated”. For the same compound, the “reduction of M. smegmatis viability” value ([3]; 30 μM, 24 h incubation) was 0.639 log10 CFU.

`CC(C)COC(=O)/C1=C/c2c([nH]c3ccccc23)/C(C(=O)OCC(C)C)=C\c2c1[nH]c1ccccc21` [Diisobutyl, (6E,13E)-diisobutyl 5,12-dihydrocycloocta[1,2-b:5,6-b′]diindole-6,13-dicarboxylate] was tested, and the “effect on RAW 264.7 cell viability” value ([2]; 24 h incubation, 3.25 to 30 µM) was “affected cell viability at the three highest concentrations assessed”.

For `CO[C@H]1/C=C/O[C@@]2(C)Oc3c(C)c(O)c4c(O)c(c(/C=N/N5CCN(C)CC5)c(O)c4c3C2=O)NC(=O)/C(C)=C\C=C\[C@H](C)[C@H](O)[C@@H](C)[C@@H](O)[C@@H](C)[C@H](OC(C)=O)[C@@H]1C` [RIF, Rifampicin, reference compound], the “reduction of M. smegmatis CFU count” value ([3]; 31 μM, 24 h of incubation, positive control) was 3.41 log10 and the “reduction of M. tuberculosis bacterial burden” value [4] was 0.362 log10 CFU/mL.

With `CCCCCOC(=O)/C1=C/c2c([nH]c3ccccc23)/C(C(=O)OCCCCC)=C\c2c1[nH]c1ccccc21` [diamyl, (6E,13E)-dipentyl 5,12-dihydrocycloocta[1,2-b:5,6-b′]diindole-6,13-dicarboxylate] the “effect on RAW 264.7 cell viability” value ([2]; 24 h incubation, 3.25 to 30 µM) was “affected cell viability at all concentrations assessed”.
